One assay addresses c-kit mutant D816V (Homo sapiens (Human), UniProt P10721, D816V/DEL694-753). The experiment in a line: c-Kit mutant D816V biochemical assay (AlphaScreen kinase activity). An outline of the steps:
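Recombinant His-tagged c-Kit D816V kinase domain (residues 551-934, insert 694-753 deleted, E. coli-expressed) phosphorylating 30 nM biotin-(E4Y)10 with 10 μM ATP, HEPES pH 7.2, Mg/Mn, 5% DMSO; 30 min, room temperature. Phosphorylation detected by AlphaScreen (streptavidin donor/PY30 acceptor beads); IC50 from 8-point 1:3 series.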
(In general: Alpha assays give light when donor and acceptor beads are brought close together.)

The test system of assay [1] is BaF3-FL KIT D816V or BaF3-FL KIT V560G/D816V cell line. Nature of the assay: Cell-based assays of c-Kit mutant kinase activity (cell proliferation, ATPlite). To be noted: at least one of the c-kit cell assays of Example 7. Summed up: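 BaF3 cells dependent on transfected full-length human KIT D816V or V560G/D816V (pCI-Neo, CMV promoter) were seeded at 1×10^4 cells/well and exposed to 8-point 1:3 dilutions from 10 μM top (0.2% DMSO) for three days at 37° C. ATPlite luminescence gave cell number; IC50 from concentration-response.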
A general note: In ATP-based viability assays light output follows the ATP content of the culture.

Molecules are shown by their SMILES. Bounds are passed on as bounds.

Sequence of c-kit mutant D816V (P10721 other isoform, or with tags, fused parts or gaps D816V/del 694-753): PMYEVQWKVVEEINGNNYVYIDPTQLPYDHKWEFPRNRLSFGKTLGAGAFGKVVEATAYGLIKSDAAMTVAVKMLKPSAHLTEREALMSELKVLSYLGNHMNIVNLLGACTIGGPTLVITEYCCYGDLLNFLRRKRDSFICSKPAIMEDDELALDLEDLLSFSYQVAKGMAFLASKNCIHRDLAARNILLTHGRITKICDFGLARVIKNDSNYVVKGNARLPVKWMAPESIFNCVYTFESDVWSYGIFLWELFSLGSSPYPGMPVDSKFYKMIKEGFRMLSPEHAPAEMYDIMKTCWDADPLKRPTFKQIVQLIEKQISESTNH

Usually IC50 stands for the midpoint of a concentration-inhibition curve. Low readings indicate greater potency, high ones weaker potency. For `Cc1nc(C2CCN(c3ncnc4[nH]c(-c5ccc(F)cc5)cc34)CC2)[nH]c1-c1ccc(F)cc1` [P-3006, 6-(4-fluorophenyl)-4-[4-[5-(4-fluorophenyl)-4-methyl-1H-imidazol-2-yl]-1-piperidyl]-7H-pyrrolo[2,3-d]pyrimidine], the IC50 against c-kit mutant D816V was 0.0001 to 1 µM; in assay [1] it was less than 10000 nM.
Regarding `Cc1ccc(-c2[nH]c(C3CCN(c4ncnc5[nH]c(-c6ccc(C#N)cc6)cc45)CC3)nc2C)cc1` [P-3089, 4-[4-[4-[4-methyl-5-(p-tolyl)-1H-imidazol-2-yl]-1-piperidyl]-7H-pyrrolo[2,3-d]pyrimidin-6-yl]benzonitrile], the figures for the IC50 (against c-kit mutant D816V; in assay [1]) were 0.0001 to 1 µM and less than 10000 nM, respectively.
In the case of `Cc1ccc(-c2[nH]c(C3CCN(c4ncnc5[nH]c(-c6ccc(C#N)cc6)cc45)CC3)nc2C)s1` [P-3090, 4-[4-[4-[4-methyl-5-(5-methyl-2-thienyl)-1H-imidazol-2-yl]-1-piperidyl]-7H-pyrrolo[2,3-d]pyrimidin-6-yl]benzonitrile], the results for the IC50 (on c-kit mutant D816V; in assay [1]) were 0.0001 to 1 µM and less than 10000 nM, respectively.
In the case of `COc1cc(-c2cc3c(N4CCC(c5nc(C)c(-c6ccc(OC(C)C)cc6)[nH]5)CC4)ncnc3[nH]2)ccn1` [P-3091, 4-[4-[5-(4-isopropoxyphenyl)-4-methyl-1H-imidazol-2-yl]-1-piperidyl]-6-(2-methoxy-4-pyridyl)-7H-pyrrolo[2,3-d]pyrimidine], the results for the IC50 (on c-kit mutant D816V; in assay [1]) were 0.0001 to 1 µM and less than 10000 nM, respectively.
Regarding `Cc1nc(C2CCN(c3ncnc4[nH]c(-c5ccc(F)cc5)cc34)CC2)[nH]c1-c1ccc(OC(C)C)cc1` [P-3092, 6-(4-fluorophenyl)-4-[4-[5-(4-isopropoxyphenyl)-4-methyl-1H-imidazol-2-yl]-1-piperidyl]-7H-pyrrolo[2,3-d]pyrimidine], the IC50 is 0.0001 to 1 µM on c-kit mutant D816V and less than 10000 nM in assay [1].
The corresponding values for `Cc1nc(C2CCN(c3ncnc4[nH]c(-c5ccc(C#N)cc5)cc34)CC2)[nH]c1-c1ccc(OC(C)C)cc1` [P-3093, 4-[4-[4-[5-(4-isopropoxyphenyl)-4-methyl-1H-imidazol-2-yl]-1-piperidyl]-7H-pyrrolo[2,3-d]pyrimidin-6-yl]benzonitrile] are 0.0001 to 1 µM and less than 10000 nM.
The corresponding values for `CCOc1cc(-c2[nH]c(C3CCN(c4ncnc5[nH]c(-c6ccc(F)cc6)cc45)CC3)nc2C)ccc1C` [P-3094, 4-[4-[5-(3-ethoxy-4-methyl-phenyl)-4-methyl-1H-imidazol-2-yl]-1-piperidyl]-6-(4-fluorophenyl)-7H-pyrrolo[2,3-d]pyrimidine] are 0.0001 to 1 µM and less than 10000 nM.

The record behind these values is US9771369B2, “Compounds and methods for kinase modulation, and indications therefor” (Plexxikon Inc., priority 2014, dated 2017).
